Experimental data published in US20050276766A1, “Methods and compositions for increasing skin remodeling” (Skin Biology, Inc., priority 2003, published 2005).

System: scar formation after surgical incisions
Test: Scar formation after surgical incisions in mice, cream applied 24 hours after surgery
Format: in vivo, Swiss-Webster mice
Details: rated from 0 (little or no scarring) to 4 (maximum observed scarring); cream at pH 6.5 applied 24 hours after 1.25 cm surgical incision; 15 mice
Method: This Example describes the use of a pastes prepared with the complexes of various copper peptides or copper complexes of amino acids and combinations of copper peptides or copper complexes of amino acids and salicylic acid to reduce scarring after surgery in animals.
Surgical incisions (1.25 cm) were made on the backs of anesthetized, 35 gram, Swiss-Webster mice. To allow normal scar development, there was no treatment after surgery. But 24 hours after surgery, the scars were covered with a cream containing either copper peptide alone or in combination with salicylic acid. Control wounds were untreated.
For comparison, the amount of scar formation was rated from 0 (little or no scarring) to 4 (maximum observed scarring) after seven days.
Table 1: Effect of cream at pH 6.5 with either peptide-copper complex or amino acid-copper complex or the combination of peptide copper/salicylic acid combination or amino acid copper/salicylic acid combination on scar formation

Substance: Gly-His-Lys-Copper(II)
- Scar Formation score after 7 days: 2.7 ± 0.6
